This is an account of results in patent publication US11291640B2, “Endoxifen for the treatment of bipolar I disorder” (Jina Pharmaceuticals, Inc., priority 2020, dated 2022).

The subject of assay [1] is patients of bipolar I disorders. As to the kind of experiment: Clinical study, response time, remission time and therapeutic dose monitoring. The format is in vivo. As to conditions: from table 1 and 2. The procedure: The term “response time” means an early indicator of treatment efficacy and it is not more than 2 days of treatment according to the embodiments described herein.
The term “remission time” refers to an absence or minimal symptoms of both mania and depression, which is not more than 4 days of treatment according to the embodiments described herein. Remission is the target of acute treatment.
(§1) Clinical study of an enteric coated tablet comprising endoxifen citrate formulation was carried out by administering to the patient doses of 2 mg to 16 mg of endoxifen citrate in an enteric coated tablet once per day for at least 21 days according to the present application.
(§2) The clinical study was a multicenter, randomized, double-blind, double-dummy, active controlled, parallel study to assess the efficacy and safety of endoxifen enteric coated tablet 8 mg and divalproex sodium extended release tablet 1000 mg in patients of bipolar I disorders.

Assay [2] shares this test system. As to the kind of experiment: Clinical study, total YMRS score at each visit. As to conditions: day 21 (EOT); patient with bipolar I disorders. The format is in vivo. The method, then: as §1, §2
(§3) Total 228 patients were enrolled in the study. All 228 patients were qualified for safety and mITT population and 213 patients were qualified for PP population.

The test system is the same in assay [3]. Description: Clinical study, MADRS score at each visit. The assay is classed as in vivo. As to conditions: day 21 (EOT); patient with bipolar I disorders. The procedure: as §1, §2, §3
The subject of assay [4] is PKC. To be noted: cited from earlier work.

Counter-ions that a name gives are not always drawn.

In the case of `CC/C(=C(\c1ccc(O)cc1)c1ccc(OCCNC)cc1)c1ccccc1` [Endoxifen, (Z)-1-(4-Hydroxyphenyl)-1-{4-[2-(monomethylamino)ethoxy]phenyl}-2-pheny 1-1-butene citrate], in assay [1], the “early response time of the treatment” value is listed as “at least 2 days” and the “remission time of treatment” value was “not more than 4 days”. Further, the “improvement in the YMRS score” value in assay [2] was “significant and sustained improvements”. Also, the “improvement in the MADRS score” value in assay [3] is “significant and sustained improvements”. Besides, the “potency in inhibiting the PKC activity compared to tamoxifen” value in assay [4] was “four-fold higher potency”.
